Experiments:
OVX mice = assay: A2BR agonist BAY 60-6583 treatment of OVX animals; type: in vivo
[1] = system: young and old mice bone marrow stromal cells; assay: Alizarin Red S deposition, bone marrow stromal cells with adenosine; type: cell-based, mouse
Procedure: Alizarin Red S, an anthraquinone derivative, may be used to identify calcium in tissue sections. […] Calcium forms an Alizarin Red S-calcium complex in a chelation process, and the end product is birefringent. […]
• Aspirate medium from cell dish (P1 cells). • Rinse with sterile PBS, aspirate. • Add 5 mL trypsin (T75 flask), incubate for 4 min at 37 C. • Add 5 mL GM to stop. • Use cell scraper to further release cells. • Transfer to tube, use additional 5 mL GM to rinse the dish and transfer. • Spin down at 1200 rpm for 4 min. • Resuspend cells, seed into culture plate at 20,000 cells/cm^2. • 2 mL/well in 6-well • 0.5 mL/well in 24-well • Freeze the rest cells in freezing medium. • 10% DMSO • 90% GM • Prepare GM-ADO (60 ug/mL) fresh: • 18 mL GM • 180 uL ADO stock (6 mg/mL) • Refresh medium daily for two weeks with the culture conditions: • GM • GM-ADO • OM (positive control) • In the third week, use phosphate supplementation: • GM+ADO +3 mM phosphate • GM+3 mM phosphate • OM (positive control) • Alizarin red S staining at 14 d and 21 d • Wash cells gently with PBS. • Fix with 4% PFA for 15 min. […] Discard milliQ water. • Alizarin red S quantification • Add 500 ul of HCl (0.5M) to each well for 10 min. at room temp with gentle shaking. • Transfer HCl solution in each well into one 1.5 ml microcentrifuge tube. […]

[2] = system: mouse mononuclear cells undergoing osteoclast differentiation; assay: Osteoclast differentiation with adenosine in vitro; type: cell-based; conditions: adenosine 30 μg/ml, 6 days of osteoclast differentiation
Procedure: All buffers used were ice cold, unless otherwise indicated. Briefly, the femur, tibia, humerus, radius, ulna, and vertebra were harvested and crushed with pestle and mortar in harvest buffer [phosphate-buffered solution (PBS) and FBS (2%, v/v)] to release BM tissue. BM was passed through a 70-μm cell strainer and centrifuged at 200 g for 5 min. Cells were resuspended in harvest buffer, gently layered onto Ficoll-Paque PLUS (GE Healthcare, Marlborough, Mass.) at 1:1 ratio, and centrifuged without rotor acceleration and deceleration at 200 g for 15 min. Afterward, the opaque middle layer with cells was collected, washed with harvest buffer, and centrifuged at 200 g for 5 min to yield a cell pellet. Isolated mononuclear cells were cultured in macrophage induction media, containing growth media, prostaglandin E2 (PGE2; 10^−7 M; Santa Cruz Biotechnology, Dallas, Tex.), and M-CSF (10 ng/ml; PeproTech, Rocky Hill, N.J.) at 100,000 cells/cm^2. For osteoclast differentiation, macrophages cultured for 3 days were further induced in osteoclast induction media containing growth media, PGE2 (10^−7 M), M-CSF (10 ng/ml), and RANKL (10 ng/ml; PeproTech). […]

[3] = system: primary mouse osteoprogenitor cells; assay: Adenosine-induced osteogenic differentiation in vitro; type: cell-based; conditions: adenosine 30 μg/ml, 7 or 14 days, no osteogenic-inducing factors
From the text: Osteoprogenitor cells were isolated as previously described with modifications. All buffers were ice cold, unless otherwise indicated. Briefly, the femur, tibia, humerus, radius, and ulna of mice were harvested. BM was flushed out and discarded. The bone was collected and cut into 1-mm^3 chips in harvest buffer and then digested in digestion buffer containing growth media [α minimum essential medium (αMEM), fetal bovine serum (FBS) (10%, v/v), penicillin/streptomycin (10,000 U/ml; 1%, v/v)], and collagenase type 2 (1 mg/ml, w/v; Worthington Biochemical, Lakewood, N.J.) while shaking at 60 rpm on orbital shaker (catalog no. 51700-13, Cole-Parmer, Vernon Hills, Ill.) in humidified incubator (37° C., 5% CO2) for 1.5 hours. Digested bone chips were rinsed three times with growth media and transferred to two wells of six-well plate for culture. Media were […] days, and bone chips were further cultured for 3 days for cells to adhere and proliferate before passage. For the first passage, cells were treated with 0.25% trypsin-EDTA (Thermo Fisher Scientific) for 3 min, neutralized with growth media, detached with cell scraper, and subcultured along with bone chips. The procedure for subsequent passages were similar but without bone chips. All experiments were performed at three to four passages. […]

Row | SMILES | bone tissue, H&E staining (OVX mice; 1 mg/kg intraperitoneally every 2 days, 8 weeks) | OVX changes of vertebra BMD, BV/TV, Tb.N, Tb.Sp by microCT (OVX mice; 8 weeks) | femur bone volume (BV/TV) by microCT (OVX mice; 8 weeks) | mineral apposition rate and bone formation rate (OVX mice; 8 weeks, bone labeling) | maximum load and stiffness of tibia (OVX mice; 8 weeks, compared to the corresponding controls) | TRAP-positive cells on the bone surface (OVX mice; 8 weeks, compared to the vehicle control) | CD73 and CD39 expression levels, immunofluorescence (OVX mice; vehicle- vs BAY 60-6583-treated groups) | fold change of alizarin red S deposition, ADO compared to GM ([1]; female) | osteogenic differentiation, alizarin red S deposition ([1]; young and aged cells from either sex, 2D culture, ADO 60 ug/mL) | expression of Nfatc1, ACP5 and CTSK [2] | expression of osterix (OSX) and osteopontin (OPN) [3]
1 | N#Cc1c(N)nc(SCC(N)=O)c(C#N)c1-c1ccc(OCC2CC2)cc1 [BAY 60-6583] | attenuation of bone loss | attenuated | bone loss was diminished | abrogation of the bone loss | improved | decreased number | no significant differences | – | – | – | –
2 | Nc1ncnc2c1ncn2[C@@H]1O[C@H](CO)[C@@H](O)[C@H]1O [adenosine] | – | – | – | – | – | – | – | larger fold change | induced osteogenic differentiation | reduced expression | up-regulation

— patent US20220249533A1, “COMPOSITIONS AND METHODS FOR BONE REPAIR AND BONE HEALTH” (DUKE UNIVERSITY, priority 2019, published 2022)
